Experiment [1] has as its system adipocytes in adipose tissue. Nature of the experiment: Effect of synthetic peptides on increase of cell number in murine adipose tissue (Test 3). The format is in vivo, mice. Particulars: 50% fat meal + 20 ppm peptide. As for the experimental part: [Test 3] Effect of adipocyte differentiation inhibiting peptide (chemical synthesis product) (in vivo)
The two adipocyte differentiation inhibiting peptides of the invention, Val-Thr-Leu and Val-Tyr-Pro, synthesized by the method shown in Example 5 were tested for effect on increase of adipocytes (in vivo). The test was performed by the same method as in Test 1 using globin proteolysate.

The test system of the next experiment is Swiss mouse 3T3-L1 cells. As to the kind of experiment: Adipocyte differentiation of preadipocytes in vitro, GPDH activity as marker enzyme (Tests 1 and 2). The format is cell-based. Particulars: for action to inhibit the GPDH activity: treatment before and after the induction of differentiation, depending on the peptide concentration. Here is the method:
(1) Treatment before induction of differentiation
Swiss mouse 3T3-L1 cells were inoculated at a density of about 3×10^4 cells/ml to a cell culturing dish. A Dulbecco modified Eagle culture medium (DMEM) containing bovine fetal blood serum incorporated therein at a concentration of 10% was used as the culture medium. The culture was invariably carried out in an ambience of 5% CO2 and 95% of air at 37° C.
After a monolayer of cells was formed, the cell layer surface was washed with a phosphate buffer physiological salt solution (PBS). In the presence of culture media containing the CD and the fraction A respectively at concentration of 0, 2, 4, and 8 mg/ml and at concentration of 0, 20, 40, and 80 μg/ml, the cell layer was cultured. Then, the cell layer surface was washed with PBS and the cell layer was cultured for two days in the presence of a culture medium incorporating therein the differentiation inducing substance (0.25 μM of dexamethasone, […] of a-methyl-3-isobutyl xanthine, and 10 μg/ml insulin).
Subsequently, the cell layer was deprived of the culture medium containing the differentiation-inducing substance. The cell layer surface was washed likewise with PBS and the cell layer was cultured for about one week in the presence of a culture medium incorporating insulin therein at a concentration of 10 μg/ml.
The effect of the fraction A on the adipocyte differentiation was rated by determining the glycerol-3-phosphate dehydrogenase activity (GPDH) by the well-known method as a marker enzyme.
(2) Treatment after induction of differentiation
Swiss mouse 3T3-L1 cells were cultured by the same method as in (1) mentioned above and then tested for GPDH activity, providing that the culture medium containing insulin at a concentration of 10 μg/ml was added to the GD and the fraction A after the removal of the culture medium containing the differentiation inducing substance.
[Test 2] Differentiation inhibiting effect of adipocyte differentiation inhibiting peptide (chemical synthesis product) on preadipocytes (in vitro)
The effects of the chemically synthesized H-Val-Thr-Leu-OH and the H-Val-Tyr-Pro-OH obtained by the same method as in Example 5 on Swiss mouse 3T3-L1 cells in were investigated by the same method as in Example 5. […]

In experiment [2] the test system is cells in the subcutaneous adipose tissue. As to the kind of experiment: Effect of globin proteolysate on distribution of adipose tissue cells (Test 4). It is filed as in vivo, mice. Particulars: 50% fat feed + Clenbuterol 2 ppm. An excerpt:
The cell number in adipose tissues shown in Table 7 represent the values including adipocytes, preadipocytes, fibroblasts, blood vessel cells, etc. The cells in the subcutaneous adipose tissue were investigated in detail as sorted into matured adipocytes, immatured adipocytes, and interstitial cells (stroma).
It is clearly noted from Table 8 showing the results of the investigation that particularly the differentiation of fibro-blasts in the group of interstitial cells represented as stromas to preadipocytes was repressed.

In a further experiment the test system is adipose tissue. As to the kind of experiment: Effect of globin proteolysate on increase of adipose tissue, mice on 50% fat feed (Test 4). It is filed as in vivo. Particulars: 50% fat feed + Clenbuterol 2 ppm. An excerpt: Then, mice were allowed to ingest freely 50% fat feed and then tested for weight of adipose tissue and cell number.
[3] abbreviates: Peptide 0.2 mg/ml, treatment after induction of differentiation (48 hours).
[4] abbreviates: Peptide 0.2 mg/ml, treatment before induction of differentiation (48 hours).
Where [5] appears, read: Peptide 0.4 mg/ml, treatment after induction of differentiation (48 hours).
The mark [6] stands for this setting: Peptide 0.4 mg/ml, treatment before induction of differentiation (48 hours).
The mark [7] stands for this setting: Peptide 0.8 mg/ml, treatment after induction of differentiation (48 hours).
Where [8] appears, read: Peptide 0.8 mg/ml, treatment before induction of differentiation (48 hours).

Residues, ends and D or L forms follow the SMILES beside them.

For the compound `CC(C)C[C@H](NC(=O)[C@@H](NC(=O)[C@@H](N)C(C)C)[C@@H](C)O)C(=O)O` [Val-Thr-Leu, H-Val-Thr-Leu-OH] (H-Val-Thr-Leu-OH), in experiment [1], the “Number of adipocytes, Epididymal adipose tissue” value came out at 88 DNA μg/adipose tissue. In addition, the “Number of adipocytes, Retroperitoneal adipose tissue” value in experiment [1] is 23 DNA μg/adipose tissue. The “Number of adipocytes, Subcutaneous adipose tissue” value in experiment [1] stood at 102 DNA μg/adipose tissue. Also, the GDPH activity is 463.2 ± 29.7 mU/mg protein in the experiment with Swiss mouse 3T3-L1 cells (setting [3]); 102.5 ± 19.6 mU/mg protein in the experiment with Swiss mouse 3T3-L1 cells (setting [4]); 281.1 ± 19.6 mU/mg protein in the experiment with Swiss mouse 3T3-L1 cells (setting [5]); 8.1 ± 1.6 mU/mg protein in the experiment with Swiss mouse 3T3-L1 cells (setting [6]); 13.8 ± 5.4 mU/mg protein in the experiment with Swiss mouse 3T3-L1 cells (setting [7]); 6.3 ± 1.9 mU/mg protein with Swiss mouse 3T3-L1 cells (setting [8]). The “Ratio of Inhibition” value is on record as 35.5% in the experiment with Swiss mouse 3T3-L1 cells (setting [3]); 82.1% with Swiss mouse 3T3-L1 cells (setting [4]); 60.8% in the experiment on Swiss mouse 3T3-L1 cells (setting [5]); 98.6% in the experiment on Swiss mouse 3T3-L1 cells (setting [6]); 98.1% with Swiss mouse 3T3-L1 cells (setting [7]); 98.9% in the experiment on Swiss mouse 3T3-L1 cells (setting [8]). In addition, in the experiment on Swiss mouse 3T3-L1 cells, the “action to inhibit the GPDH activity” value is reported as “conspicuous action to inhibit the GPDH activity”.

On to `CC(C)[C@H](N)C(=O)N[C@@H](Cc1ccc(O)cc1)C(=O)N1CCC[C@H]1C(=O)O` [Val-Tyr-Pro, H-Val-Tyr-Pro-OH] (H-Val-Tyr-Pro-OH), for which the “Number of adipocytes, Epididymal adipose tissue” value in experiment [1] stood at 102 DNA μg/adipose tissue. Besides, in experiment [1], the “Number of adipocytes, Retroperitoneal adipose tissue” value worked out at 27 DNA μg/adipose tissue. In addition, in experiment [1], the “Number of adipocytes, Subcutaneous adipose tissue” value worked out at 125 DNA μg/adipose tissue. Besides, the GDPH activity is given as 412.6 ± 20.3 mU/mg protein with Swiss mouse 3T3-L1 cells (setting [3]); 106.7 ± 28.1 mU/mg protein in the experiment with Swiss mouse 3T3-L1 cells (setting [4]); 197.3 ± 27.5 mU/mg protein in the experiment on Swiss mouse 3T3-L1 cells (setting [5]); 10.6 ± 2.3 mU/mg protein in the experiment on Swiss mouse 3T3-L1 cells (setting [6]); 14.7 ± 2.7 mU/mg protein in the experiment with Swiss mouse 3T3-L1 cells (setting [7]); 7.8 ± 1.5 mU/mg protein in the experiment with Swiss mouse 3T3-L1 cells (setting [8]). Moreover, the “Ratio of Inhibition” value was determined as 42.5% in the experiment on Swiss mouse 3T3-L1 cells (setting [3]); 83.0% in the experiment with Swiss mouse 3T3-L1 cells (setting [4]); 72.5% in the experiment with Swiss mouse 3T3-L1 cells (setting [5]); 98.5% in the experiment with Swiss mouse 3T3-L1 cells (setting [6]); 98.0% with Swiss mouse 3T3-L1 cells (setting [7]); 98.7% in the experiment on Swiss mouse 3T3-L1 cells (setting [8]). Besides, in the experiment with Swiss mouse 3T3-L1 cells, the “action to inhibit the GPDH activity” value is listed as “conspicuous action to inhibit the GPDH activity”.

Turning to `CC(C)(C)NCC(O)c1cc(Cl)c(N)c(Cl)c1` (centres unmarked) [Clenbuterol], in experiment [2], the Adipocyte was 30, the Preadipoytes is listed as 30 and the Stroma stood at 36. In addition, in the experiment on adipose tissue, the “Number of adipocytes, Epididymal adipose tissue” value was 79 ± 7 DNA μg/adipose tissue; the “Number of adipocytes, Retroperitoneal adipose tissue” value amounted to 18 ± 2 DNA μg/adipose tissue; the “Number of adipocytes, Subcutaneous adipose tissue” value turned out to be 96 ± 8 DNA μg/adipose tissue; the “weight of adipose tissue, Epididymal adipose tissue” value is 0.97 ± .11 g. Further, in the experiment on adipose tissue, the “weight of adipose tissue, Retroperitoneal adipose tissue” value is listed as 0.28 ± .04 g and the “weight of adipose tissue, Subcutaneous adipose tissue” value is listed as 1.49 ± .22 g.

For the origin of these results see US5756467A, “Adipocyte differentiation inhibiting peptide and adipocyte differentiation inhibiting agent using the peptide as active component thereof” (Itoham Foods Inc., priority 1993, dated 1998).
